Data set [1] relates to Id3. As to the kind of experiment: Id3 expression in HUVECs, Western blot. Type of data set: cell-based, Human. Particulars: proliferating HUVECs; 24 hours (FIG. 10A). The procedure: (§1) Human umbilical vein endothelial cells (HUVECs) and lymphatic endothelial cells (LECs) were cultivated in EBM™-2 Endothelial Cell Growth Basal Medium supplemented with EGM™-2 MV Microvascular Endothelial Cell Growth Medium-2 SingleQuots™ Kit (both Lonza, catalogue numbers CC-3156 and CC4176, respectively), hereafter referred to as endothelial cell growth medium. HUVECs and LECs were cultivated in the presence of the indicated concentrations of X6632, or with DMSO as a solvent control. After 24 hours, cells were harvested. Lysates were western blotted and probed with antibodies against Id1 and Id3. Western blots probed with vinculin antibodies served as loading controls.
(§2) Western blot analysis was performed using standard methods. The following antibodies were used for protein detection: Id1 (195-14, CalBioreagents), Id3 (17-3, CalBioreagents), β-actin (AC-15, Sigma Aldrich), Vinculin (VIN-11-5, Sigma Aldrich). Protein bands were detected using HRP conjugated secondary antibodies (P0447, P0448, Agilent Technologies) and enhanced chemiluminescence (32106, Thermo Fisher Scientific).
(§3) The effect of X6632 on Id1 and Id3 expression in cultivated proliferating human umbilical vein endothelial cells (HUVECs) was investigated. […] LDN-193189, an antagonist of BMP receptor isotypes ALK2 and ALK3, served as a positive control reference for inhibition of Id1 and Id3 expression.

Data set [2] concerns Id1. Nature of the data set: Id1 expression in HUVECs, Western blot. Type of data set: cell-based, Human. Particulars: proliferating HUVECs; 24 hours (FIG. 10A). The procedure: as §1, §2, §3
In general terms: In western blotting, separated proteins are transferred to a membrane and probed.

The subject of data set [3] is Id3. Nature of the data set: Compound screen: BMP4-induced Id3 expression, Western blot. To be noted: for Inhibitory effect on Id3 protein expression: B16-F10 and Ret cells, BMP4 10 ng/ml and compound simultaneously, 24 h, rated relative to CBD. Type of data set: cell-based, murine. The procedure: (§4) To screen compounds with an inhibitory effect on Id1 and Id3 expression, cells were simultaneously stimulated with BMP4 (10 ng/ml, 315-27, Peprotech) and substances at the indicated concentrations for 24 h. DMSO served as a solvent control. Effects on Id1 and Id3 expression levels were analysed by Western blotting.
as §2
(§5) B16-F10 and Ret melanoma cells were treated with BMP4 to induce Id1 and Id3 expression, and simultaneously treated with each of the compounds individually for a 24 h period.

Data set [4] deals with Id1. To be noted: cited from earlier work.
Another data set concerns glioma. To be noted: glioma model; cited from earlier work.
In data set [5] the test system is mouse embryonic fibroblasts (MEFs). As to the kind of experiment: Proliferation/cytotoxicity in mouse embryonic fibroblasts, 2D culture. Type of data set: cell-based.
The next data set deals with mammary carcinoma. To be noted: orthotropic mammary carcinoma model; cited from earlier work.
The next data set addresses CB2 (Homo sapiens, UniProt P34972). Particulars: cited from earlier work.
Data set [6] relates to B16-F10 and Ret cells. Nature of the data set: 3D Matrigel assay. Type of data set: cell-based, murine. As to the method:
X8166 inhibits melanoma cell growth in 3D Matrigel. B16-F10 (A) or Ret (B) control or CRISPR/Cas9 Id1/Id3 cells were seeded in 3D Matrigel (10 mg/ml) and grown for six days before analysis. B16-F10 or Ret cells were treated daily with DMSO or X8166 (7.5 μM). The number of colonies at six positions of each well of a 48-well plate were counted in each z-level (5-10 z-levels were imaged per position).
Cells (2×10^3) were mixed with Matrigel to obtain 150 μl of a cell/Matrigel (10 mg/ml, #354262, Corning Inc.) solution, which was seeded into a well of a 48-well plate. The gel was allowed to solidify at 37° C. for 30 min and was subsequently overlaid with 500 μl complete growth medium. After six days of culture, images were captured using a Leica DMI6000 B microscope at six different x/y positions in every well, and a minimum of five horizontal layers (z levels) at each position, in order to get every cell in focus for image analysis. Image analysis was performed using Fiji software as follows: First, images were transformed into 8-bit files (pixel values from 0 (black) to 255 (white)). The scale was set to distance=0, known=0, pixel=1, and unit=pixel global. Outlines of each colony in focus in every image were detected using the integrated semi-automatic magic wand tool. Once outlines were matching the morphology of the colony were obtained, the colony was filled white (pixel value 255) using the fill function. Thresholding of pixel values (threshold=255) allowed black (background) and white (colonies) images of the filled colonies to be obtained. The “Analyze particles” function was applied to measure the area and perimeter of colonies with a minimum pixel size of 1500. An invasive index was calculated as follows: Invasive index=(perimeter)^2/area, resulting in a unitless measure of invasiveness.

Another data set has as its system B16-F10 melanoma cells. As to the kind of experiment: Tumor growth and initiation in vivo, B16-F10. Particulars: for Number of animals with tumors: B16-F10 cells, 8 mice per group, assessed over 90 days. Set-up: species or system mice. The source says:
(§6) B16-F10 (A) or Ret (B) cells were co-injected with Matrigel into syngeneic mice. […] Numbers indicate the number of animals with a tumor in each group. Bar graphs show the mean tumor volume in each group at the day when the first animal had reached the legal tumor size limit. Kaplan-Meier curves show the percentage of tumor-free animals in percent as a measure for tumor initiation.
(§7) Cells were harvested using trypsin/EDTA and washed in PBS. The indicated numbers of living melanoma cells were subcutaneously injected into the flank of syngeneic mice in 100 μl PBS. For co-injection experiments, the indicated number of living cells was resuspended in 100 μl Matrigel HC (10 mg/ml, #354262, Corning Inc.), and subcutaneously injected into the flank. Tumor volume was calculated using the formula 4/3π (d1/2×d2/2×d3/2), where d1−d3 represents the diameter of the tumor in three dimensions. […] All animal experiments were approved by the local authorities, and performed according to the German legal requirements. Tumor initiating cell (TIC) frequency and p-values were calculated using ELDA software.
(§8) To investigate the anti-tumor properties of the selected Id1/Id3-inhibiting compounds, groups of experimental mice (8 per group) were injected subcutaneously with B16-F10 or Ret melanoma cells. […] Melanoma initiation and growth was assessed over a period of 90 days.

Data set [7] is described as follows: Toxicity observed in treated tumor-bearing mice. Type of data set: in vivo. Particulars: daily intraperitoneal injections; for Toxicity in the treated mice: 14 days. The procedure:
as §7
In contrast, daily intraperitoneal injections of CBD led to the death of two mice in the experiment with Ret cell-derived tumors (cause of death unknown).

In data set [8] the test system is Id1. As to the kind of experiment: Compound screen: BMP4-induced Id1 expression, Western blot. Format: cell-based, murine. Particulars: for Inhibitory effect on Id1 protein expression: B16-F10 and Ret cells, BMP4 10 ng/ml and compound simultaneously, 24 h, rated relative to CBD. The procedure: as §4, §2, §5
For data set [9], the system named is B16-F10 and Ret cells. As to the kind of experiment: Proliferation of melanoma cells in 2D culture. Format: cell-based, murine.
The subject of a further data set is Ret melanoma cells. Nature of the data set: Tumor growth and initiation in vivo, Ret. Set-up: species or system mice.
Source text: as §6, §7, §8

The mark [10] stands for this setting: compound 3.3 μM, BMP4, 24 h (FIG. 9B).

“Also recorded” adds a separate entry of the source.

CB2, sequence (P34972 whole entry, species assumed): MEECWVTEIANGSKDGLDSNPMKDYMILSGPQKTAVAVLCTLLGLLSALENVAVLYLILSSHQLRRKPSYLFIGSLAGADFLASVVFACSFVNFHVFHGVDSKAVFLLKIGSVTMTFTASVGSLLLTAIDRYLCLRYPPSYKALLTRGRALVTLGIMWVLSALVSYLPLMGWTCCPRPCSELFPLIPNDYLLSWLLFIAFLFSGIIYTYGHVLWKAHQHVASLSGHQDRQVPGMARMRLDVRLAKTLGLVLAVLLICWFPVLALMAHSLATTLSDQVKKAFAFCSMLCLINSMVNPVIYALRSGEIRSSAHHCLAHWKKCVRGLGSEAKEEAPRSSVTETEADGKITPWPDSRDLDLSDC

`Cc1cc(=O)oc2cc(O)ccc12` [4-methylumbelliferone, reference compound]: the Id3 protein expression entry with Id3 [1] is given as “did not reduce”. In addition, the Id1 protein expression result in the data set on Id1 [2] was “did not reduce”.

Turning to `C=C(C)[C@@H]1CCC(C)=C[C@H]1c1c(O)cc(CCCCC)cc1O` [CBD, Cannabidiol, reference compound], the “Inhibition of Id3 expression” value in the data set with Id3 [3] (setting [10]) was “does not inhibit”. Also, the “Id1 expression at the transcriptional level” value with Id1 [4] is recorded as “inhibits”. In the data set with glioma, the Id1 expression entry is on record as “inhibited”, the Invasion in vivo entry is listed as “decreased invasion” and the “Survival of tumor-bearing mice” value was “prolonged survival”. Besides, the “Proliferation / cytotoxicity, non-transformed MEFs” value in [5] is recorded as “strongly inhibited; also recorded: more toxic”. Moreover, in the data set with mammary carcinoma, the “Levels of Id1 in tumor tissue” value is “reduced levels”; the “Primary tumor growth and lung metastasis” value is “inhibition”. The “Affinity for CB2” value at CB2 is recorded as “low affinity”. Further, the “3D assays could not be performed with daily application, reason” value with B16-F10 and Ret cells [6] (daily application in 3D Matrigel) was “cytotoxicity”. In addition, the “Number of animals with tumors” value with B16-F10 melanoma cells is on record as “seven out of eight”. For the same compound, the “Toxicity in the treated mice” value in [7] is “toxicity-related injury to their intestinal organs”. For the same compound, the Death of mice result in [7] (experiment with Ret cell-derived tumors, cause of death unknown) is “two”. Besides, the “Inhibition of Id1 expression” value in the data set on Id1 [8] (setting [10]) is on record as “does not inhibit”. In addition, the “Proliferation / cytotoxicity, melanoma cells” value in the data set with B16-F10 and Ret cells [9] was “strongly inhibited; also recorded: more cytotoxic”.

As for `CCCCCCCC(C)(C)c1cc(O)c2cc(Cc3ccccc3O)c(=O)oc2c1` [X81], the “Inhibitory effect on Id3 protein expression” value in the data set on Id3 [3] is recorded as “strongest inhibitory activities”. In addition, the “Inhibitory effect on Id1 protein expression” value with Id1 [8] was “strongest inhibitory activities”.

As to `CCCCCCC(C)(C)c1cc(O)c2cc(Cc3ccccc3O)c(=O)oc2c1` [X106], the “Inhibitory effect on Id3 protein expression” value in the data set on Id3 [3] is listed as “strongest inhibitory activities”. Further, the “Inhibitory effect on Id1 protein expression” value in the data set on Id1 [8] is reported as “strongest inhibitory activities”.

Consider `O=C(Nc1nn(Cc2ccc(C(F)(F)F)cc2)c2c(C(F)(F)F)cccc12)c1ccccc1` [X8035], for which, in the data set with Id3 [3], the “Inhibitory effect on Id3 protein expression” value is reported as “strongest inhibitory activities”. Moreover, the “Inhibitory effect on Id1 protein expression” value in the data set on Id1 [8] was “strongest inhibitory activities”.

Consider `CCCCn1cc(C(=O)Cc2ccccc2)c2ccccc21` [X8166], for which the “Inhibitory effect on Id3 protein expression” value in the data set with Id3 [3] was “strongest inhibitory activities”. Further, in [5], the “Proliferation / cytotoxicity, non-transformed MEFs” value is on record as “modest inhibitory effect; also recorded: well tolerated; also recorded: superior; also recorded: less cytotoxic”. Also, the “Melanoma growth and initiation” value is “significantly inhibit; also recorded: potent inhibitors” in the data set with Ret melanoma cells (Ret cells co-injected with Matrigel, syngeneic mice, daily i.p. first 14 days, compared to DMSO) and “significantly inhibit; also recorded: potent inhibitors” with B16-F10 melanoma cells (B16-F10 cells co-injected with Matrigel, syngeneic mice, daily i.p. first 14 days, compared to DMSO). Further, the “Number of mice that did not develop any tumors” value in the data set on Ret melanoma cells (Ret cells, 8 mice per group, assessed over 90 days) was determined as 2 mice. For the same compound, the “Tumor growth and initiation compared to CBD” value in the data set on Ret melanoma cells (Ret experiment, daily i.p. first 14 days) was “significantly more”; in the data set with B16-F10 melanoma cells (B16-F10 experiment, daily i.p. first 14 days) it was “significantly more”. The “Growth of melanoma cells in 3D Matrigel” value with B16-F10 and Ret cells [6] (Matrigel 10 mg/ml, six days, treated daily, X8166 7.5 μM) was “significantly impaired; also recorded: inhibits”. The “Number of animals with tumors” value with B16-F10 melanoma cells is given as “none”. For the same compound, in [7], the “Toxicity in the treated mice” value is on record as “no evidence for toxicity was observed; also recorded: well tolerated”. Further, in the data set on Id1 [8], the “Inhibitory effect on Id1 protein expression” value is “strongest inhibitory activities”. In addition, the “Proliferation / cytotoxicity, melanoma cells” value with B16-F10 and Ret cells [9] was “modest inhibitory effect; also recorded: less cytotoxic”.

For `Cc1ccc(Cn2cc(CC(=O)Nc3ccc(C(F)(F)F)cc3)c3ccccc32)cc1` [X8706], the “Inhibitory effect on Id3 protein expression” value in the data set with Id3 [3] is “strongest inhibitory activities”. For the same compound, the “Inhibitory effect on Id1 protein expression” value with Id1 [8] was “strongest inhibitory activities”.

For `Cc1ccc(CN(C(=O)c2ccccc2)c2nn(Cc3ccc(C)cc3)c3c(C(F)(F)F)cccc23)cc1` [X8766], the “Inhibitory effect on Id3 protein expression” value with Id3 [3] was “strongest inhibitory activities”. For the same compound, in the data set on Id1 [8], the “Inhibitory effect on Id1 protein expression” value is listed as “strongest inhibitory activities”.

The values are drawn from US20220259172A1, “CHEMICAL INHIBITORS OF ID PROTEINS FOR THE TREATMENT OF CANCER AND OTHER DISEASES” (Universität Heidelberg, priority 2019, published 2022).
